Experimental data from US8952024B2, “Herbicidal pyrimidone derivatives” (E I du Pont de Nemours and Company, priority 2009, dated 2015).

Assays:
Test in all cases: Test D pre-/postemergence plant response
Assay type in all cases: in vivo
[1] = test system: Italian ryegrass (Lolium multiflorum)
Summary of the method: (§1)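 Greenhouse assay: sown seeds in loam/sand received preemergence spray; simultaneously, emerged seedlings (1- to 4-leaf, 2–18 cm) got postemergence spray of the same surfactant-containing formulation. Rating at 14–21 days by visual comparison with controls, 0 = no effect to 100 = complete control.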

[2] = test system: Surinam grass (Brachiaria decumbens)
Summary of the method: as §1

[3] = test system: bluegrass (annual bluegrass, Poa annua)
Summary of the method: as §1

[4] = test system: chickweed (common chickweed, Stellaria media)
Summary of the method: as §1

[5] = test system: field bindweed (Convolvulus arvensis)
Summary of the method: as §1

[6] = test system: goosegrass (Eleusine indica)
Summary of the method: as §1

[7] = test system: groundsel (common groundsel, Senecio vulgaris); conditions: Postemergence
Summary of the method: as §1

[8] = test system: johnsongrass (Sorghum halepense)
Summary of the method: as §1

kochia (Kochia scoparia) = test system: kochia (Kochia scoparia)
Summary of the method: as §1

[9] = test system: large crabgrass (Digitaria sanguinalis)
Summary of the method: as §1

[10] = test system: morningglory (pitted morningglory, Ipomoea lacunosa)
Summary of the method: as §1

[11] = test system: naked crabgrass (Digitaria nuda)
Summary of the method: as §1

[12] = test system: nutsedge (purple nutsedge, Cyperus rotundus)
Summary of the method: as §1

[13] = test system: purslane (common purslane, Portulaca oleracea)
Summary of the method: as §1

[14] = test system: spanishneedles (Bidens bipinnata)
Summary of the method: as §1

[15] = Postemergence, 16 g ai/ha, scale 0 to 100
[16] = Postemergence, 31 g ai/ha, scale 0 to 100
[17] = Postemergence, 125 g ai/ha, scale 0 to 100 (0 no effect, 100 complete control)
[18] = Postemergence, 62 g ai/ha, scale 0 to 100 (0 no effect, 100 complete control)
[19] = Preemergence, 16 g ai/ha, scale 0 to 100, 0 no effect, 100 complete control
[20] = Preemergence, 31 g ai/ha, scale 0 to 100 (0 no effect, 100 complete control)
[21] = Preemergence, 125 g ai/ha, scale 0 to 100
[22] = Preemergence, 62 g ai/ha, scale 0 to 100

Cc1ccc(Cl)cc1-n1c(-c2ccccc2)ncc(C(=O)C2=C(O)CCCC2=O)c1=O [Compound 52]
5: Plant response rating, Goosegrass [6, 19] | Plant response rating, Nutsedge, Purple [12, 20]
60: Plant response rating, Goosegrass [6, 20] | Plant response rating, Purslane [13, 20]
35: Plant response rating, Ryegrass, Italian [1, 17] | Plant response rating, Bluegrass [3, 17] | Plant response rating, Bluegrass [3, 18] | Plant response rating, Kochia (kochia (Kochia scoparia); [21]) | Plant response rating, Nutsedge, Purple [12, 18] | Plant response rating, Spanishneedles [14, 19]
95: Plant response rating, Chickweed [4, 21] | Plant response rating, Johnsongrass [8, 21] | Plant response rating, Crabgrass, Naked [11, 17] | Plant response rating, Crabgrass, Naked [11, 18]
30: Plant response rating, Nutsedge, Purple [12, 22]
75: Plant response rating, Chickweed [4, 15] | Plant response rating, Goosegrass [6, 16] | Plant response rating, Goosegrass [6, 18] | Plant response rating, Johnsongrass [8, 16] | Plant response rating, Johnsongrass [8, 22] | Plant response rating, Crabgrass, Large [9, 22] | Plant response rating, Crabgrass, Naked [11, 16] | Plant response rating, Purslane [13, 17] | Plant response rating, Spanishneedles [14, 15] | Plant response rating, Spanishneedles [14, 16]
25: Plant response rating, Bluegrass ([3]; Postemergence, 31 g ai/ha, scale 0 to 100 (0 no effect, 100 complete control)) | Plant response rating, Kochia (kochia (Kochia scoparia); [20]) | Plant response rating, Kochia (kochia (Kochia scoparia); [22])
100: Plant response rating, Chickweed [4, 17] | Plant response rating, Groundsel ([7]; 16 g ai/ha, scale 0 to 100) | Plant response rating, Groundsel ([7]; 31 g ai/ha, scale 0 to 100) | Plant response rating, Groundsel ([7]; 125 g ai/ha, scale 0 to 100 (0 no effect, 100 complete control)) | Plant response rating, Groundsel ([7]; 62 g ai/ha, scale 0 to 100 (0 no effect, 100 complete control)) | Plant response rating, Morningglory [10, 21] | Plant response rating, Purslane [13, 21]
20: Plant response rating, Bluegrass [3, 21] | Plant response rating, Field Bindweed [5, 19] | Plant response rating, Field Bindweed [5, 22] | Plant response rating, Crabgrass, Large [9, 20] | Plant response rating, Crabgrass, Naked [11, 22] | Plant response rating, Nutsedge, Purple [12, 16]
80: Plant response rating, Surinam Grass [2, 18] | Plant response rating, Goosegrass [6, 17] | Plant response rating, Goosegrass [6, 22] | Plant response rating, Crabgrass, Naked [11, 21] | Plant response rating, Spanishneedles [14, 17] | Plant response rating, Spanishneedles [14, 18]
98: Plant response rating, Surinam Grass [2, 20] | Plant response rating, Surinam Grass [2, 21] | Plant response rating, Chickweed [4, 18] | Plant response rating, Goosegrass [6, 21] | Plant response rating, Crabgrass, Large [9, 21] | Plant response rating, Spanishneedles [14, 21]
15: Plant response rating, Ryegrass, Italian [1, 18] | Plant response rating, Ryegrass, Italian [1, 21] | Plant response rating, Bluegrass [3, 15]
90: Plant response rating, Surinam Grass [2, 17] | Plant response rating, Chickweed [4, 16] | Plant response rating, Purslane [13, 22]
0: Plant response rating, Ryegrass, Italian [1, 15] | Plant response rating, Ryegrass, Italian [1, 16] | Plant response rating, Ryegrass, Italian [1, 19] | Plant response rating, Ryegrass, Italian [1, 20] | Plant response rating, Surinam Grass [2, 19] | Plant response rating, Bluegrass [3, 19] | Plant response rating, Bluegrass [3, 20] | Plant response rating, Bluegrass [3, 22] | Plant response rating, Johnsongrass [8, 19] | Plant response rating, Johnsongrass [8, 20] | Plant response rating, Kochia (kochia (Kochia scoparia); [15]) | Plant response rating, Kochia (kochia (Kochia scoparia); [16]) | Plant response rating, Kochia (kochia (Kochia scoparia); [18]) | Plant response rating, Crabgrass, Large [9, 19] | Plant response rating, Morningglory [10, 19] | Plant response rating, Morningglory [10, 20] | Plant response rating, Morningglory [10, 22] | Plant response rating, Crabgrass, Naked [11, 19] | Plant response rating, Crabgrass, Naked [11, 20] | Plant response rating, Nutsedge, Purple [12, 15] | Plant response rating, Nutsedge, Purple [12, 19] | Plant response rating, Purslane [13, 19]
85: Plant response rating, Johnsongrass [8, 18]
65: Plant response rating, Surinam Grass [2, 16] | Plant response rating, Goosegrass [6, 15] | Plant response rating, Johnsongrass [8, 15] | Plant response rating, Crabgrass, Large [9, 15] | Plant response rating, Morningglory [10, 16] | Plant response rating, Purslane [13, 15] | Plant response rating, Purslane [13, 16] | Plant response rating, Purslane [13, 18]
70: Plant response rating, Field Bindweed [5, 16] | Plant response rating, Field Bindweed [5, 17] | Plant response rating, Field Bindweed [5, 18] | Plant response rating, Crabgrass, Large [9, 16] | Plant response rating, Crabgrass, Large [9, 17] | Plant response rating, Crabgrass, Large [9, 18] | Plant response rating, Morningglory [10, 17] | Plant response rating, Morningglory [10, 18] | Plant response rating, Crabgrass, Naked [11, 15] | Plant response rating, Spanishneedles [14, 20]
40: Plant response rating, Kochia (kochia (Kochia scoparia); [17]) | Plant response rating, Nutsedge, Purple [12, 17] | Plant response rating, Nutsedge, Purple [12, 21]
50: Plant response rating, Field Bindweed [5, 15] | Plant response rating, Field Bindweed [5, 21] | Plant response rating, Morningglory [10, 15]
